Target: Metabotropic glutamate receptor 1 (Homo sapiens, UniProt Q13255)
Experiment: Inhibition of recombinant mGluR1a receptor expressed in CHO cells
Format: cell-based

Metabotropic glutamate receptor 1, sequence (Q13255 whole entry): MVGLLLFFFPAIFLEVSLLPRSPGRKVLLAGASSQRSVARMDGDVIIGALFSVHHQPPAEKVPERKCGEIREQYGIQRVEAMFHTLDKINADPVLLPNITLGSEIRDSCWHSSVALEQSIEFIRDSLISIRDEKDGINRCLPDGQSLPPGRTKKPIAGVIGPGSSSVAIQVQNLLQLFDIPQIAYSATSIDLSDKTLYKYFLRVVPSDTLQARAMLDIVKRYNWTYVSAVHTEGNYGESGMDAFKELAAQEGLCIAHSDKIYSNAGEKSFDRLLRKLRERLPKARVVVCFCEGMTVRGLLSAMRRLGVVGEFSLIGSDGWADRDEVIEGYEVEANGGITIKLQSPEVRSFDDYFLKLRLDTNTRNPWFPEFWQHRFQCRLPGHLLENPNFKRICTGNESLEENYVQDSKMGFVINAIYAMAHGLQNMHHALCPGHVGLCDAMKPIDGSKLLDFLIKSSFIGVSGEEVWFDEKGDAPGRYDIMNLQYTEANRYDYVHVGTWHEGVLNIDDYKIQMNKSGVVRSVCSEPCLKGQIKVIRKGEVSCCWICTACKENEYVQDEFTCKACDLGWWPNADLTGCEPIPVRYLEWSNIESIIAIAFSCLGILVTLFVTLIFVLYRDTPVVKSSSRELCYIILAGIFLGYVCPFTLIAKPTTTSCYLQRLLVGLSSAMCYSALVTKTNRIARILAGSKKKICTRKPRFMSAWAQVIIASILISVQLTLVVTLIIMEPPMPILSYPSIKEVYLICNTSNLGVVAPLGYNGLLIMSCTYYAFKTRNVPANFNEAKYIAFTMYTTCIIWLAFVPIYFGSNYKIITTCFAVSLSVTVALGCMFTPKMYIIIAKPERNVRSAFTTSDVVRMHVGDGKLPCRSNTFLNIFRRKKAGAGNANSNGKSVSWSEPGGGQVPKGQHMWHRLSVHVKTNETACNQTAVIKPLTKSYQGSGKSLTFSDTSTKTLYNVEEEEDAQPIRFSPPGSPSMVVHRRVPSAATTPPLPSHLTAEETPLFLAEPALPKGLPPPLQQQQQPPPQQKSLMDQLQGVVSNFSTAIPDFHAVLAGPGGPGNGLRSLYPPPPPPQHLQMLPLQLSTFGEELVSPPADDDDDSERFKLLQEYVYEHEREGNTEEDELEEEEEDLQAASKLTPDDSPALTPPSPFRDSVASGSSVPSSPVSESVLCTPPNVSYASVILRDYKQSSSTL

IC50 [nM] | Structure (SMILES)
31.6 | COCCNC(=O)c1[nH]cc(C(=O)O[C@@H](C)C(C)(C)C)c1C
200 | CC(=O)NCCCCNC(=O)c1[nH]cc(C(=O)OC2CC3CCC2C3)c1C (centres undefined)
158 | COCCNC(=O)c1[nH]cc(C(=O)OC2CC3CCC2C3)c1C (centres undefined)
1000 | CC(=O)NCCCCNC(=O)c1[nH]c(C)c(C(=O)OC2CC3CCC2C3)c1C (centres undefined)
3.98 | CCCOC(=O)c1[nH]cc(C(=O)O[C@@H](C)C(C)(C)C)c1C
20 | CCOC(=O)c1[nH]cc(C(=O)OC2CC3CCC2C3)c1C (centres undefined)
100 | CCOC(=O)c1[nH]c(C)c(C(=O)OC2CC3CCC2C3)c1C (centres undefined)
316 | COCCNC(=O)c1[nH]c(C)c(C(=O)OC2CC3CCC2C3)c1C (centres undefined)

Structure (SMILES) | IC50 [nM]
COCCNC(=O)c1[nH]cc(C(=O)NC2CC3CCC2C3)c1C (centres undefined) | > 10000

Reference: ChEMBL document CHEMBL1146326, “13C bis-labeled pyrroles: a tool for the identification of the rat metabolism of 3-methyl pyrrole-2,4-dicarboxylic acid 2-propyl ester 4-(1,2,2-trimethyl-propyl) ester” (Bioorg Med Chem Lett, 2007)
